Reference: article PMC8288134, “Synthesis, potential antitumor activity, cell cycle analysis, and multitarget mechanisms of novel hydrazones incorporating a 4-methylsulfonylbenzene scaffold: a molecular docking study” (Journal of Enzyme Inhibition and Medicinal Chemistry, 2021)

Legend:
CAKI-1 = system: CAKI-1; design: method as in https://dtp.cancer.gov/dtpstandard/dwindex/index.jsp; conditions: reference drugs, ref https://dtp.cancer.gov/dtpstandard/dwindex/index.jsp; cited from earlier work
U251 = system: U251; design: method as in https://dtp.cancer.gov/dtpstandard/dwindex/index.jsp; conditions: reference drugs, ref https://dtp.cancer.gov/dtpstandard/dwindex/index.jsp; cited from earlier work
NCI-H322M = system: NCI-H322M; design: method as in https://dtp.cancer.gov/dtpstandard/dwindex/index.jsp; conditions: reference drugs, ref https://dtp.cancer.gov/dtpstandard/dwindex/index.jsp; cited from earlier work
MOLT-4 = system: MOLT-4; design: method as in https://dtp.cancer.gov/dtpstandard/dwindex/index.jsp; conditions: reference drugs, ref https://dtp.cancer.gov/dtpstandard/dwindex/index.jsp; cited from earlier work
M14 = system: M14; design: method as in https://dtp.cancer.gov/dtpstandard/dwindex/index.jsp; conditions: reference drugs, ref https://dtp.cancer.gov/dtpstandard/dwindex/index.jsp; cited from earlier work
MDA-MB-231/ATCC = system: MDA-MB-231/ATCC; design: method as in https://dtp.cancer.gov/dtpstandard/dwindex/index.jsp; conditions: reference drugs, ref https://dtp.cancer.gov/dtpstandard/dwindex/index.jsp; cited from earlier work
SF-539 = system: SF-539; design: method as in https://dtp.cancer.gov/dtpstandard/dwindex/index.jsp; conditions: reference drugs, ref https://dtp.cancer.gov/dtpstandard/dwindex/index.jsp; cited from earlier work
A498 = system: A498; design: method as in https://dtp.cancer.gov/dtpstandard/dwindex/index.jsp; conditions: reference drugs, ref https://dtp.cancer.gov/dtpstandard/dwindex/index.jsp; cited from earlier work
NCI-H23 = system: NCI-H23; design: method as in https://dtp.cancer.gov/dtpstandard/dwindex/index.jsp; conditions: reference drugs, ref https://dtp.cancer.gov/dtpstandard/dwindex/index.jsp; cited from earlier work
SF-295 = system: SF-295; design: method as in https://dtp.cancer.gov/dtpstandard/dwindex/index.jsp; conditions: reference drugs, ref https://dtp.cancer.gov/dtpstandard/dwindex/index.jsp; cited from earlier work
UACC-257 [1] = system: UACC-257; design: method as in https://dtp.cancer.gov/dtpstandard/dwindex/index.jsp; conditions: reference drugs, ref https://dtp.cancer.gov/dtpstandard/dwindex/index.jsp; cited from earlier work
OVCAR-8 = system: OVCAR-8; design: method as in https://dtp.cancer.gov/dtpstandard/dwindex/index.jsp; conditions: reference drugs, ref https://dtp.cancer.gov/dtpstandard/dwindex/index.jsp; cited from earlier work
SNB-19 [2] = system: SNB-19; design: method as in https://dtp.cancer.gov/dtpstandard/dwindex/index.jsp; conditions: reference drugs, ref https://dtp.cancer.gov/dtpstandard/dwindex/index.jsp; cited from earlier work
PRMI-8226 = system: PRMI-8226; design: method as in https://dtp.cancer.gov/dtpstandard/dwindex/index.jsp; conditions: reference drugs, ref https://dtp.cancer.gov/dtpstandard/dwindex/index.jsp; cited from earlier work
CCRF-CEM = system: CCRF-CEM; design: method as in https://dtp.cancer.gov/dtpstandard/dwindex/index.jsp; conditions: reference drugs, ref https://dtp.cancer.gov/dtpstandard/dwindex/index.jsp; cited from earlier work
OVCAR-4 [3] = system: OVCAR-4; design: method as in https://dtp.cancer.gov/dtpstandard/dwindex/index.jsp; conditions: reference drugs, ref https://dtp.cancer.gov/dtpstandard/dwindex/index.jsp; cited from earlier work
[4] = system: leukaemia tumour cell lines; conditions: cited from earlier work; for GI50: read-out: GI50 (subpanel average), reference drugs, ref https://dtp.cancer.gov/dtpstandard/dwindex/index.jsp; for CC50: read-out: LC50 (subpanel average), reference drugs, ref https://dtp.cancer.gov/dtpstandard/dwindex/index.jsp; for TGI (subpanel average): reference drugs, ref https://dtp.cancer.gov/dtpstandard/dwindex/index.jsp
HCT-116 = experiment: NCI antitumor screen (SRB); format: cell-based; conditions: Homo sapiens, read-out: Growth inhibition percentage (GI%)
TK-10 = experiment: NCI antitumor screen (SRB); format: cell-based; conditions: Homo sapiens, one dose 10 µM, read-out: Growth inhibition percentage (GI%)
OVCAR-5 = experiment: NCI antitumor screen (SRB); format: cell-based; conditions: Homo sapiens, one dose 10 µM, read-out: Growth inhibition percentage (GI%)
SNB-19 [5] = experiment: NCI antitumor screen (SRB); format: cell-based; conditions: Homo sapiens, one dose 10 µM, read-out: Growth inhibition percentage (GI%)
SK-OV-3 = experiment: NCI antitumor screen (SRB); format: cell-based; conditions: Homo sapiens, one dose 10 µM, read-out: Growth inhibition percentage (GI%)
RXF 393 = experiment: NCI antitumor screen (SRB); format: cell-based; conditions: Homo sapiens, one dose 10 µM, read-out: Growth inhibition percentage (GI%)
MDA-MB-435 = experiment: NCI antitumor screen (SRB); format: cell-based; conditions: Homo sapiens, one dose 10 µM, read-out: Growth inhibition percentage (GI%)
SNB-75 = experiment: NCI antitumor screen (SRB); format: cell-based; conditions: Homo sapiens, one dose 10 µM, read-out: Growth inhibition percentage (GI%)
MALME-3M = experiment: NCI antitumor screen (SRB); format: cell-based; conditions: Homo sapiens, one dose 10 µM, read-out: Growth inhibition percentage (GI%)
UACC-62 = experiment: NCI antitumor screen (SRB); format: cell-based; conditions: Homo sapiens, one dose 10 µM, read-out: Growth inhibition percentage (GI%)
SK-MEL-5 = experiment: NCI antitumor screen (SRB); format: cell-based, human; conditions: Homo sapiens; SK-MEL-5; one dose 10 µM; read-out: Growth inhibition percentage (GI%)
T-47D = experiment: NCI antitumor screen (SRB); format: cell-based; conditions: Homo sapiens, T47D, one dose 10 µM, read-out: Growth inhibition percentage (GI%)
SW-620 = experiment: NCI antitumor screen (SRB); format: cell-based; conditions: Homo sapiens, one dose 10 µM, read-out: Growth inhibition percentage (GI%)
UACC-257 [6] = experiment: NCI antitumor screen (SRB); format: cell-based, human; conditions: Homo sapiens; UACC-257; one dose 10 µM; read-out: Growth inhibition percentage (GI%)
NCI-H460 = experiment: NCI antitumor screen (SRB); format: cell-based; conditions: Homo sapiens, one dose 10 µM, read-out: Growth inhibition percentage (GI%)
OVCAR-4 [7] = experiment: NCI antitumor screen (SRB); format: cell-based; conditions: Homo sapiens, one dose 10 µM, read-out: Growth inhibition percentage (GI%)
NCI/ADR-RES = experiment: NCI antitumor screen (SRB); format: cell-based; conditions: Homo sapiens, one dose 10 µM, read-out: Growth inhibition percentage (GI%)
PC-3 = experiment: NCI antitumor screen (SRB); format: cell-based; conditions: Homo sapiens, one dose 10 µM, read-out: Growth inhibition percentage (GI%)

Row | SMILES | GI50 (CAKI-1) | GI50 (U251) | GI50 (NCI-H322M) | GI50 (MOLT-4) | GI50 (M14) | GI50 (MDA-MB-231/ATCC) | GI50 (SF-539) | GI50 (A498) | GI50 (NCI-H23) | GI50 (SF-295) | GI50 (UACC-257 [1]) | GI50 (OVCAR-8) | GI50 (SNB-19 [2]) | GI50 (CCRF-CEM) | GI50 (OVCAR-4 [3]) | GI50 [4] | CC50 [4] | TGI (subpanel average) [4] | also measured
1 | CS(=O)(=O)c1ccc(C(=O)Nc2ccc(Cl)c(-c3ccccn3)c2)c(Cl)c1 [Vismodegib, vismodegib] | 79.4 µM | 50.1 µM | 100 µM | 31.6 µM | 31.6 µM | 19.9 µM | 50.1 µM | 31.6 µM | 50.1 µM | 31.6 µM | 50.1 µM | 31.6 µM | 63.1 µM | 31.6 µM | 39.8 µM |  |  |  | GI50 (PRMI-8226): 31.6 µM
2 | CNC(=O)c1cc(Oc2ccc(NC(=O)Nc3ccc(Cl)c(C(F)(F)F)c3)cc2)ccn1 [Sorafenib, sorafenib] | 3.16 µM | 1.99 µM | 2.51 µM | 3.16 µM | 1.99 µM | 1.26 µM |  | 2.51 µM | 1.99 µM |  | 1.99 µM | 3.16 µM | 3.16 µM | 1.99 µM | 3.16 µM | 1.91 µM | > 100 µM | 42.12 µM | 
3 | O=c1[nH]cc(F)c(=O)[nH]1 [Compound 5-Fu, 5-fluorouracil, reference compound] |  |  |  |  |  |  |  |  |  |  |  |  |  |  |  | 2.82 µM | > 100 µM | 68.37 µM | inhibition at 10 µM (HCT-116): 82.2%; inhibition at 10 µM (TK-10): 33.1%; inhibition at 10 µM (OVCAR-5): 55.7%; inhibition at 10 µM (SNB-19 [5]): 34.1%; inhibition at 10 µM (SK-OV-3): 22.5%; inhibition at 10 µM (RXF 393): 65.7%; inhibition at 10 µM (MDA-MB-435): 63.4%; inhibition at 10 µM (SNB-75): 34.1%; inhibition at 10 µM (MALME-3M): 41.8%; inhibition at 10 µM (UACC-62): 60.3%; inhibition at 10 µM (SK-MEL-5): 66.3%; inhibition at 10 µM (T-47D): 43.3%; inhibition at 10 µM (SW-620): 49.9%; inhibition at 10 µM (UACC-257 [6]): 80.5%; inhibition at 10 µM (NCI-H460): 87%; inhibition at 10 µM (OVCAR-4 [7]): 40.6%; inhibition at 10 µM (NCI/ADR-RES): 52.4%; inhibition at 10 µM (PC-3): 41.8%
4 | COc1cc2ncnc(Nc3ccc(F)c(Cl)c3)c2cc1OCCCN1CCOCC1 [Gefitinib, gefitinib] |  | 3.16 µM | 0.063 µM | 2 µM | 2 µM | 3.98 µM | 10 µM |  | 2.51 µM | 10 µM | 2.51 µM |  | 3.16 µM | 0.398 µM |  | 2.56 µM |  | 12.07 µM | 
